Assay results published in patent publication US9839618B2, “Compositions and methods relating to proliferative diseases” (The Penn State Research Foundation, priority 2010, dated 2017).
Read-outs that look alike come from different tables or passages of the source.

Assays:
[1] = tested on: 1205 Lu metastatic melanoma cells; assay: MTS assay viability IC50, 1205 Lu; assay type: cell-based, human; conditions: for IC50: Homo sapiens, 1205Lu
Protocol: (§1) The efficacy of leelamine to kill other cancer types is measured and the IC50 for cell lines derived from carcinomas of breast, lung, prostate, connective tissue, pancreas and colon determined. The MTS assay as described in Sharma, A. et al., Clin Cancer Res, 2009, 15:1674-85; and Madhunapantula, S. V. et al., Mol Cancer Ther, 2008, 7:1297-308 is used to establish the IC50 at 24, 48 and 72 hours of leelamine treatment for normal human epidermal melanocytes (FOM103), normal skin fibroblast cells (FF2441), normal skin keratinocytes (HFK) and compared to melanocytic lesion cells from the radial-, vertical- and metastatic melanoma stages. 5×10^3 cells per well in 100 μL of media are plated and grown in a 96-well plate for 48 to 72 hours and treated with either DMSO vehicle control or 0.62 to 40 μmol/L of leelamine for 24, 48 or 72 hours. IC50 values for each compound in μmol/L for respective cell lines are measured from three independent experiments using GraphPad Prism version 4.01 (GraphPad Software, La Jolla, Calif.). Leelamine is found to be not toxic to normal cells and effective to kill melanoma cells as well as non-melanoma cancer cells as shown in Table 1 in FIG. 20. Leelamine is 3- to 4-fold more specific at killing metastatic melanoma than normal cells, supporting cancer therapeutic utility at concentrations<2 μmol/L.
(§2) 5×10^3 cells per well in 100 μL of media are plated and grown in a 96-well plate for 48 to 72 hours and treated with either DMSO vehicle control or 0.62 to 40 μmol/L of leelamine for 24, 48 or 72 hours. IC50 values for each compound in μmol/L for respective cell lines are measured from three independent experiments using GraphPad Prism version 4.01 (GraphPad Software, La Jolla, Calif.).
(§3) The IC50 and effect of liposomal preparations of leelamine on viability of normal human melanocytes, fibroblasts and melanoma cells UACC 903 and 1205 Lu are measured using the MTS assay (Promega, Madison, Wis.). Empty liposomes or liposomes containing abietic acid are used as controls. 5×10^3 cells per well in 100 μL of media are plated and grown in a 96-well plate for 48 or 72 hours for melanoma and normal cell lines, respectively. The cells are then treated with 0.62 to 40 μmol/L of liposome alone, a liposomal preparation of abietic acid, or with Nanolipolee-007 for 24 hours. IC50 values for each liposome in μmol/L for respective cell lines are measured from three independent experiments using GraphPad Prism version 4.01 (GraphPad Software, La Jolla, Calif.). Nanolipolee-007 retains the growth inhibitory activity of leelamine in killing melanoma cells in culture and specifically kills melanoma cells compared to normal cells, FIG. 24.
(§4) Dehydroabietylamine, its N-substituted derivatives and the corresponding dihydroabietylamine and its N-substituted derivatives are tested for their capability to inhibit cell growth of cancer cell lines, including melanoma (UACC 903, 1205Lu), breast (MCF-7), fibrosarcoma (HT-1080), colon (Caco-2), and prostate (PC-3) cancer cell lines. Viability and IC50 of normal human fibroblasts and cell lines from melanoma and other malignancies following treatment with all the agents are measured using the MTS assay (Promega, Madison, Wis.). Human fibroblast FF2441 cells, metastatic melanoma cell lines 1205 Lu and UACC 903 as well as cancer cell lines representing sarcoma (HT-1080), prostate (PC-3, LNCaP), breast (MCF-7) and lung (A-549) are maintained in DMEM (Invitrogen, Carlsbad, Calif.) supplemented with 10% FBS (Hyclone, Logan, Utah) in a 5% CO2 atmosphere, humidified 37° C. incubator. 5×10^3 cells per well in 100 μL of media are plated and grown in a 96-well plate for 48 to 72 h and treated with either DMSO vehicle control or 0.62 to 40 μmol/L for 24, 48 or 72 h. IC50 values for each compound in […] for respective cell lines are measured from three independent experiments using GraphPad Prism version 4.01 (GraphPad Software, La Jolla, Calif.). […]

cancer cell line = assay: MTS assay viability IC50, A-459; assay type: cell-based; conditions: A459; Table 5; read-out: IC50 Liver (A-459)
Protocol: (§5) Dehydroabietylamine, its N-substituted derivatives and the corresponding dihydroabietylamine and its N-substituted derivatives are tested for their capability to inhibit cell growth of cancer cell lines, including melanoma (UACC 903, 1205Lu), breast (MCF-7), fibrosarcoma (HT-1080), colon (Caco-2), and prostate (PC-3) cancer cell lines. Viability and IC50 of normal human fibroblasts and cell lines from melanoma and other malignancies following treatment with all the agents are measured using the MTS assay (Promega, Madison, Wis.). Human fibroblast FF2441 cells, metastatic melanoma cell lines 1205 Lu and UACC 903 as well as cancer cell lines representing sarcoma (HT-1080), prostate (PC-3, LNCaP), breast (MCF-7) and lung (A-549) are maintained in DMEM (Invitrogen, Carlsbad, Calif.) supplemented with 10% FBS (Hyclone, Logan, Utah) in a 5% CO2 atmosphere, humidified 37° C. incubator. 5×10^3 cells per well in 100 μL of media are plated and grown in a 96-well plate for 48 to 72 h and treated with either DMSO vehicle control or 0.62 to 40 μmol/L for 24, 48 or 72 h. IC50 values for each compound in […] for respective cell lines are measured from three independent experiments using GraphPad Prism version 4.01 (GraphPad Software, La Jolla, Calif.). FIG. 52 is a graph showing IC50 values for leelamine and compounds 4a, 4b and 5a in treated fibroblasts (FF2441) compared to melanoma cells. Selectivity ratio here is defined as ratio of activity against fibroblasts compared to activity against melanoma cells. Leelamine is relatively selective with a ratio of >6 and >4 for UACC903 and 1205Lu melanoma cells. The selectivity ratio of compound 4a is ˜4 and ˜3 for UACC903 and 1205Lu and for compound 4b is ˜4 for both cell lines. The selectivity ratio of compound 5a is ˜4 for UACC903 and >2 for 1205Lu cells.

[2] = tested on: FF2441 normal human fibroblasts; assay: MTS assay viability IC50, normal fibroblasts; assay type: cell-based; conditions: Homo sapiens, FF2441; Table 5; read-out: IC50 Fibroblast FF2441
Protocol: as §1
as §2, with “Calif.). […]” for “Calif.).”
as §5

[3] = tested on: Fibrosarcoma (HT-1080) cancer cell line; assay: MTS assay viability IC50, HT-1080; assay type: cell-based; conditions: Homo sapiens, Table 5, read-out: IC50 Fibro Sarcoma (HT-1080)
Protocol: as §5

[4] = tested on: UACC 903 metastatic melanoma cells; assay: MTS assay viability IC50, UACC 903; assay type: cell-based, human; conditions: for IC50: Homo sapiens, UACC-903
Protocol: as §1, §2, §3, §4

[5] = tested on: Breast (MCF-7) cancer cell line; assay: MTS assay viability IC50, MCF-7; assay type: cell-based; conditions: Homo sapiens, MCF7; Table 5
Protocol: as §5

[6] = tested on: Prostate (PC-3) cancer cell line; assay: MTS assay viability IC50, PC-3; assay type: cell-based; conditions: Table 5
Protocol: as §5

[7] = tested on: Prostate (LnCap) cancer cell line; assay: MTS assay viability IC50, LnCap; assay type: cell-based; conditions: Homo sapiens, Table 5
Protocol: as §5

[8] = activity against fibroblasts FF2441 compared to melanoma cells

IC50 ([1]; Example 8, read-out: IC50 1205Lu): 2380 nM
IC50 ([1]; Table 4, read-out: IC50 Metastatic Melanoma Cell line 1205Lu): 2380 ± 140 nM
IC50 ([1]; Table 6, read-out: IC50 Metastatic melanoma 1205 Lu): 2380 ± 140 nM
IC50 (cancer cell line): 15300 ± 1830 nM
IC50 [3]: 4540 ± 870 nM
IC50 ([4]; Example 8, read-out: IC50 UACC 903): 2360 nM
IC50 ([4]; Table 4, read-out: IC50 Metastatic Melanoma Cell line UACC903): 2360 ± 250 nM
IC50 ([4]; Table 5, read-out: IC50 Melanoma (UACC903)): 2360 ± 250 nM
IC50 ([4]; Table 6, read-out: IC50 Metastatic melanoma UACC 903): 2360 ± 250 nM
IC50 ([4]; Table 7, read-out: IC50 (UACC903)): 2360 nM
IC50 [5]: 9040 ± 2430 nM
IC50 [6]: 10700 ± 870 nM
IC50 [7]: 22400 ± 3310 nM
Structure (SMILES): CNC[C@]1(C)CCC[C@]2(C)C3CCC(C(C)C)=CC3=CCC12 (stereo partly drawn) [Compound 4b, {[(1R,4aR)-1,4a-dimethyl-7-(propan-2-yl)-1,2,3,4,4a,4b,5,6,10,10a-decahydrophenanthren-1-yl]methyl}(methyl)amine]
Selectivity ratio, fibroblasts versus 1205Lu [1, 8]: ~4
IC50 [2]: 9330 ± 1270 nM
Selectivity ratio, fibroblasts versus UACC903 [4, 8]: ~4
